PubChem BioAssay (NCI)
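Interpolation was linear, between the two tested concentrations surrounding the appropriate level; five concentrations were tested over 48 hours in 96-well plates. TGI denotes the concentration required for complete inhibition of growth.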

Columns and labels:
Experiment in all cases: NCI-60 cell line screen, 48 h
HCC-2998 colon = system: HCC-2998 colon
RXF 393 renal = system: RXF 393 renal
SF-539 CNS = system: SF-539 CNS
BT-549 breast = system: BT-549 breast
SK-MEL-2 melanoma = system: SK-MEL-2 melanoma
SF-268 CNS = system: SF-268 CNS
CAKI-1 renal = system: CAKI-1 renal
OVCAR-5 ovarian = system: OVCAR-5 ovarian
A549 NSCLC = system: A549 NSCLC
ACHN renal = system: ACHN renal
OVCAR-3 ovarian = system: OVCAR-3 ovarian
NCI-H460 lung = system: NCI-H460 lung
NCI-H522 lung = system: NCI-H522 lung
MALME-3M melanoma = system: MALME-3M melanoma
MDA-MB-231 breast = system: MDA-MB-231 breast
UACC-62 melanoma = system: UACC-62 melanoma
SK-OV-3 ovarian = system: SK-OV-3 ovarian
HCT-116 colon = system: HCT-116 colon
NCI-H23 lung = system: NCI-H23 lung
HT29 colon = system: HT29 colon

| SMILES | TGI (HCC-2998 colon) | TGI (RXF 393 renal) | TGI (SF-539 CNS) | TGI (BT-549 breast) | TGI (SK-MEL-2 melanoma) | TGI (SF-268 CNS) | TGI (CAKI-1 renal) | TGI (OVCAR-5 ovarian) | TGI (A549 NSCLC) | TGI (ACHN renal) | TGI (OVCAR-3 ovarian) | TGI (NCI-H460 lung) | TGI (NCI-H522 lung) | TGI (MALME-3M melanoma) | TGI (MDA-MB-231 breast) | TGI (UACC-62 melanoma) | TGI (SK-OV-3 ovarian) | TGI (HCT-116 colon) | TGI (NCI-H23 lung) | TGI (HT29 colon) |
| --- | --- | --- | --- | --- | --- | --- | --- | --- | --- | --- | --- | --- | --- | --- | --- | --- | --- | --- | --- | --- |
| C=C(C)[C@@H]1CCC2=C[C@H](CC(C)=CC3=CC(C)=C(O3)[C@@H]1OC)OC2=O | > 100 µM | 56.9 µM | > 100 µM | > 100 µM | 52.7 µM | > 100 µM | > 100 µM | > 100 µM | > 100 µM | > 100 µM | > 100 µM | > 100 µM | > 100 µM | > 100 µM | 87.3 µM | > 100 µM | – | – | – | – |
| O=c1c2ccccc2[nH]c2cc(O)cc(O)c12 | > 100 µM | > 100 µM | > 100 µM | – | > 100 µM | > 100 µM | – | – | > 100 µM | > 100 µM | > 100 µM | > 100 µM | 86.3 µM | > 100 µM | – | > 100 µM | > 100 µM | > 100 µM | > 100 µM | > 100 µM |
| CCSc1nc(N)c2c(-c3ccccc3)c3c(nc2n1)CCC3 | – | > 100 µM | 53 µM | > 100 µM | – | > 100 µM | > 100 µM | > 100 µM | > 100 µM | > 100 µM | > 100 µM | > 100 µM | – | > 100 µM | > 100 µM | > 100 µM | > 100 µM | > 100 µM | > 100 µM | – |
| CC(=O)O[C@H]1[C@@H](OC(C)=O)C(C)(C)/C=C/[C@H](C)C(=O)[C@@]2(OC(C)=O)C[C@@](C)(OC(C)=O)[C@H](OC(C)=O)[C@@H]2[C@H]2OC(=O)CC[C@@]2(OC(=O)c2ccccc2)[C@@H]1OCC(C)C | > 100 µM | > 100 µM | > 100 µM | > 100 µM | > 100 µM | > 100 µM | > 100 µM | > 100 µM | – | > 100 µM | > 100 µM | > 100 µM | > 100 µM | > 100 µM | > 100 µM | > 100 µM | > 100 µM | 65.2 µM | > 100 µM | > 100 µM |
| CSCCC(NC(=O)OCc1ccccc1)NC(=O)OCc1ccccc1 | > 100 µM | – | – | – | > 100 µM | – | > 100 µM | > 100 µM | > 100 µM | > 100 µM | > 100 µM | > 100 µM | > 100 µM | – | > 100 µM | – | > 100 µM | > 100 µM | > 100 µM | > 100 µM |
